# Measurements published in patent US10517889B2, “Modulators of SMAD7 expression” (Ionis Pharmaceuticals, Inc., priority 2017, dated 2019).
# Strand notation (5' to 3'): a small letter for the sugar, then the base; units joined by * are phosphorothioate-linked, units joined directly phosphodiester-linked; [ ] holds rarer units or linkages, { } end groups; capitals alone tell only the bases. e = 2'-O-(2-methoxyethyl) (MOE); [5mC] = 5-methylcytosine; d = 2'-deoxy (DNA)
# Tested on: human SMAD7 mRNA
# Assay: Antisense inhibition of human SMAD7 mRNA expression in Hep3B cells by 5-10-5 MOE gapmers, single concentration, electroporation, RT-PCR (Example 1, Study 1 and 2)
# Assay type: cell-based
# Settings: Study 2, electroporation with 15,000 nM antisense oligonucleotide, 5-10-5 MOE gapmers targeting SEQ ID NO: 1 and 2
# Summary of the method: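 Readout is percent SMAD7 mRNA inhibition versus untreated cells, measured by qRT-PCR (RTS5062) and corrected for total RNA by RIBOGREEN. Oligonucleotide, 5,000 nM or 15,000 nM, was delivered by electroporation into Hep3B cells at 20,000 per well. RNA was collected about 24 h later.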
row,Substance,% inhibition of SMAD7 mRNA expression [%]
1,771485 (antisense eA*eA*eG*e[5mC]*e[5mC]*d[5mC]*dG*dT*d[5mC]*d[5mC]*dA*d[5mC]*dG*dG*d[5mC]*eT*eG*e[5mC]*eT*eG) [compound 771485],15
2,771488 (antisense e[5mC]*eT*eG*eA*eT*d[5mC]*dT*dG*d[5mC]*dA*d[5mC]*dG*dG*dT*dA*eA*eA*eG*e[5mC]*e[5mC]) [compound 771488],53
3,771493 (antisense e[5mC]*eG*eG*eG*e[5mC]*dA*dG*d[5mC]*dT*dG*d[5mC]*dT*dG*dA*dT*eG*eA*eA*e[5mC]*eT) [compound 771493],17
4,771495 (antisense e[5mC]*eT*eA*eG*e[5mC]*d[5mC]*dA*dG*d[5mC]*dA*d[5mC]*dG*dG*dG*d[5mC]*eA*eG*e[5mC]*eT*eG) [compound 771495],18
5,771496 (antisense eT*eG*eA*e[5mC]*e[5mC]*dT*d[5mC]*dT*dA*dG*d[5mC]*d[5mC]*dA*dG*d[5mC]*eA*e[5mC]*eG*eG*eG) [compound 771496],20
6,771501 (antisense eG*e[5mC]*eA*e[5mC]*eG*d[5mC]*dG*dG*d[5mC]*dT*dA*d[5mC]*d[5mC]*dG*dG*e[5mC]*eT*eG*eT*eT) [compound 771501],16
7,771503 (antisense eG*e[5mC]*eT*e[5mC]*eA*d[5mC]*dG*d[5mC]*dT*d[5mC]*dT*dG*dT*d[5mC]*d[5mC]*e[5mC]*e[5mC]*eT*e[5mC]*e[5mC]) [compound 771503],27
8,771504 (antisense e[5mC]*eA*eG*e[5mC]*eT*d[5mC]*dA*d[5mC]*dG*d[5mC]*dT*d[5mC]*dT*dG*dT*e[5mC]*e[5mC]*e[5mC]*e[5mC]*eT) [compound 771504],48
9,771508 (antisense e[5mC]*e[5mC]*eT*eG*e[5mC]*dT*d[5mC]*dA*dG*d[5mC]*dT*d[5mC]*dA*d[5mC]*dG*e[5mC]*eT*e[5mC]*eT*eG) [compound 771508],8
10,771510 (antisense eA*eG*eT*eG*eT*dG*dG*d[5mC]*d[5mC]*dT*dG*d[5mC]*dT*d[5mC]*dA*eG*e[5mC]*eT*e[5mC]*eA) [compound 771510],35
11,771511 (antisense eT*eT*eT*eG*eA*dA*dG*dT*dG*dT*dG*dG*d[5mC]*d[5mC]*dT*eG*e[5mC]*eT*e[5mC]*eA) [compound 771511],31
12,771516 (antisense eG*eA*eG*eG*eA*dA*dA*dA*dT*dA*dT*dT*dA*dG*d[5mC]*eA*eG*e[5mC]*eA*eA) [compound 771516],8
13,771518 (antisense eA*eA*eG*e[5mC]*eA*d[5mC]*dT*d[5mC]*dA*dG*dG*dA*dG*dG*dA*eA*eA*eA*eT*eA) [compound 771518],4

# Same assay, conditions: electroporation with 15,000 nM antisense oligonucleotide (Study 2), 5-10-5 MOE gapmers targeting SEQ ID NO: 1 and 2
row,Substance,% Inhibition of SMAD7 mRNA [%]
1,771481 (antisense eG*e[5mC]*eA*eG*eG*d[5mC]*dT*dG*dT*dA*d[5mC]*dG*d[5mC]*d[5mC]*dT*eT*e[5mC]*eT*e[5mC]*eG) [compound 771481],26
2,771489 (antisense e[5mC]*eA*eA*eA*eG*d[5mC]*dT*dG*dA*dT*d[5mC]*dT*dG*d[5mC]*dA*e[5mC]*eG*eG*eT*eA) [compound 771489],34
3,771497 (antisense eG*eA*eA*eG*eA*dT*dG*dA*d[5mC]*d[5mC]*dT*d[5mC]*dT*dA*dG*e[5mC]*e[5mC]*eA*eG*e[5mC]) [compound 771497],25
4,771505 (antisense e[5mC]*eT*e[5mC]*eA*eG*d[5mC]*dT*d[5mC]*dA*d[5mC]*dG*d[5mC]*dT*d[5mC]*dT*eG*eT*e[5mC]*e[5mC]*e[5mC]) [compound 771505],29
5,771512 (antisense eA*eG*eT*eA*eG*dT*dT*dT*dG*dA*dA*dG*dT*dG*dT*eG*eG*e[5mC]*e[5mC]*eT) [compound 771512],34

# Same assay, conditions: electroporation, 15,000 nM antisense oligonucleotide (Study 2), 5-10-5 MOE gapmers targeting SEQ ID NO: 1 and 2
row,Substance,% inhibition of SMAD7 mRNA expression [%]
1,771481 (antisense eG*e[5mC]*eA*eG*eG*d[5mC]*dT*dG*dT*dA*d[5mC]*dG*d[5mC]*d[5mC]*dT*eT*e[5mC]*eT*e[5mC]*eG) [compound 771481],0
2,771482 (antisense e[5mC]*e[5mC]*eG*e[5mC]*eT*dG*d[5mC]*dA*dG*dG*d[5mC]*dT*dG*dT*dA*e[5mC]*eG*e[5mC]*e[5mC]*eT) [compound 771482],38
3,771483 (antisense eA*e[5mC]*eG*eG*e[5mC]*dT*dG*d[5mC]*dT*dG*d[5mC]*dA*dT*dA*dA*eA*e[5mC]*eT*e[5mC]*eG) [compound 771483],22
4,771489 (antisense e[5mC]*eA*eA*eA*eG*d[5mC]*dT*dG*dA*dT*d[5mC]*dT*dG*d[5mC]*dA*e[5mC]*eG*eG*eT*eA) [compound 771489],27
5,771490 (antisense e[5mC]*eT*eT*e[5mC]*eA*d[5mC]*dA*dA*dA*dG*d[5mC]*dT*dG*dA*dT*e[5mC]*eT*eG*e[5mC]*eA) [compound 771490],44
6,771491 (antisense eG*eG*e[5mC]*e[5mC]*e[5mC]*d[5mC]*dA*dG*d[5mC]*d[5mC]*d[5mC]*dT*dT*d[5mC]*dA*e[5mC]*eA*eA*eA*eG) [compound 771491],39
7,771497 (antisense eG*eA*eA*eG*eA*dT*dG*dA*d[5mC]*d[5mC]*dT*d[5mC]*dT*dA*dG*e[5mC]*e[5mC]*eA*eG*e[5mC]) [compound 771497],0
8,771498 (antisense e[5mC]*eT*eG*eT*eT*dG*dA*dA*dG*dA*dT*dG*dA*d[5mC]*d[5mC]*eT*e[5mC]*eT*eA*eG) [compound 771498],48
9,771499 (antisense eG*e[5mC]*eT*eA*e[5mC]*d[5mC]*dG*dG*d[5mC]*dT*dG*dT*dT*dG*dA*eA*eG*eA*eT*eG) [compound 771499],1
10,771505 (antisense e[5mC]*eT*e[5mC]*eA*eG*d[5mC]*dT*d[5mC]*dA*d[5mC]*dG*d[5mC]*dT*d[5mC]*dT*eG*eT*e[5mC]*e[5mC]*e[5mC]) [compound 771505],0
11,771512 (antisense eA*eG*eT*eA*eG*dT*dT*dT*dG*dA*dA*dG*dT*dG*dT*eG*eG*e[5mC]*e[5mC]*eT) [compound 771512],0
12,771513 (antisense eA*eG*e[5mC]*eA*eA*dA*dG*dT*dA*dG*dT*dT*dT*dG*dA*eA*eG*eT*eG*eT) [compound 771513],34
13,771514 (antisense eT*eT*eA*eG*e[5mC]*dA*dG*d[5mC]*dA*dA*dA*dG*dT*dA*dG*eT*eT*eT*eG*eA) [compound 771514],19

# Same assay, conditions: electroporation, 15,000 nM, approximately 24 hours, relative to untreated control cells, gapmers targeting SEQ ID NO: 1 and 2
row,Substance,% inhibition of SMAD7 mRNA expression [%]
1,771486 (antisense e[5mC]*eG*eG*eT*eA*dA*dA*dG*d[5mC]*d[5mC]*d[5mC]*dG*dT*d[5mC]*d[5mC]*eA*e[5mC]*eG*eG*e[5mC]) [compound 771486],52
2,771494 (antisense e[5mC]*eA*eG*e[5mC]*eA*d[5mC]*dG*dG*dG*d[5mC]*dA*dG*d[5mC]*dT*dG*e[5mC]*eT*eG*eA*eT) [compound 771494],20
3,771502 (antisense e[5mC]*eG*e[5mC]*eT*e[5mC]*dT*dG*dT*d[5mC]*d[5mC]*d[5mC]*d[5mC]*dT*d[5mC]*d[5mC]*eG*e[5mC]*eA*e[5mC]*eG) [compound 771502],48
4,771517 (antisense e[5mC]*eT*e[5mC]*eA*eG*dG*dA*dG*dG*dA*dA*dA*dA*dT*dA*eT*eT*eA*eG*e[5mC]) [compound 771517],25
